Assays:
humans = assay: Open label dose-escalating safety and tolerability study of dietary agmatine sulfate capsules (Example I); assay type: in vivo, human; details: for Adverse Effects (no. of participants): Nausea and Diarrhea: 12 participants
Experimental: This study is based on administration to humans weighing 60 to 70 kg.
Agmatine sulfate was manufactured according to international standards ISO 9001. It was encapsulated under cGMP (current Good Manufacturing Practice) conditions in gelatin-glycerin capsules as the sole active ingredient of the dietary supplement and the capsules packaged in properly labeled plastic container bottles.
The study was performed at Tel-Aviv Sourasky Medical Center, Israel and approved by the Institutional Review Board (Trial Number: 05-302) and by the Israel Ministry of Health National Review Board (Trial Number: 20050479), and conducted in accordance with the Helsinki guidelines under current Good Clinical Practice (cGCP) and the International Conference on Harmonization (ICH) guidelines. All procedures were performed after participants had read, understood and signed the informed consent form. Eligibility of consenting participants was determined after medical history recording, comprehensive clinical examination, and laboratory tests of blood samples to ensure inclusion/exclusion criteria.
Inclusion Criteria: 1) Men and women 18-75 years of age, including also those diagnosed with spine skeletal pathologies causing nerve compression. 2) Women must be non-pregnant, non-lactating, or sterilized, or postmenopausal. 3) All participants must give a signed informed consent.
Exclusion Criteria: 1) Those with any significant clinical, medical or surgical condition, such as: cardiovascular, pulmonary, hepatic, renal, immune, endocrine, metabolic, digestive, malignancy, or allergic, and those with deviations from the normal laboratory test values. 2) Those with any neuromuscular diseases (other than spine skeletal pathologies causing nerve compression). 3) Those with any neurological diseases. 4) Those with any history of alcohol or substance abuse within the last 2 years. 5) Those with gastric ulcer history. 6) Those who took any experimental drug within 90 days prior to screening. 7) Women who are pregnant or breast feeding. 8) Those participating in other clinical trials.
At the starting day of the study eligible participants began taking the supplement and had the option of receiving concomitantly any conventional treatment [e.g. drug treatment or physiotherapy] as needed for their welfare, and this was recorded throughout the duration of the study. However, any other experimental drug or dietary supplement was disallowed.
Table 1 details the escalating doses and regimens taken by the consecutive cohorts. Following screening to ensure inclusion/exclusion criteria, 48 men and women, 28 to 70 years old were recruited consecutively to the study after they gave a signed informed consent. Eligible participants took 3 times a day, after meals (morning, noontime and evening), the specified daily dose of agmatine sulfate capsules. Each capsule contained 445 mg of agmatine sulfate (Table 1).
Before beginning and within 5 days after termination—and before the next cohort began taking the supplement—all cohort participants underwent thorough clinical evaluation and routine laboratory tests of blood samples to ascertain normal function of the cardiovascular, hepatic, renal, immune and metabolic systems.
In-person evaluations were performed at: 11-15 days, 22-25 days, 40-45 days after treatment starting day (day 1), and then telephone interview evaluations every 3-6 months for the duration of the trial. The flow chart (2) outlined in FIG. 2 illustrates the treatment and follow-up schedules as exemplified for a 10-day cohort. In addition, participants received a “participant diary” for self recording of any outstanding health related events during the treatment interval.
For the sake of privacy, all records and data were identified only by participants' code number. All “source data” documents were stored in individual patient files and kept at the clinical center by the principal investigator and copies are kept with the study sponsor. […]

[1] = system: participants with lumbar disc-associated radiculopathy; assay: Randomized, double-blind, placebo-controlled trial in lumbar disc-associated radiculopathy; assay type: in vivo, human; details: 2.670 g/day for 14 days
Description: This recommendation is supported by recent clinical trials (Keynan O, Mirovsky Y, Dekel S, Gilad V H, Gilad G M. Safety and efficacy of dietary agmatine sulfate in lumbar disc-associated radiculopathy. An open label, dose-escalating study followed by a randomized, double-blind, placebo-controlled trial. Pain Med, (2010) in press). […] In the randomized, double-blind, placebo-controlled (RCT) trial, eligible participants received either placebo or agmatine sulfate (2.670 g/day for 14 days) in a double-blind fashion. Analysis was performed on 30 participants in the placebo and 31 in the agmatine sulfate arm. […] Secondary outcomes included assessments of safety and tolerability. […] While the severity of pain symptoms and general health status improved with time in both placebo and agmatine sulfate-treated groups, the improvements were more pronounced in the agmatine sulfate-treated group. […] Importantly, none of the participants reported worsening in their general health status.
Results, mean (±SEM, vertical lines) values are expressed as percent of baseline values. Asterisks indicate significant differences between the placebo- and agmatine sulfate-treated groups (p 0.033).

[2] = 4th Cohort, 3.560 g/day for 21 days

N=C(N)NCCCCN.O=S(=O)(O)O [agmatine sulfate]
Adverse Effects (no. of participants): Nausea and Diarrhea (humans; 3rd Cohort, 3.560 g/day for 10 days): 1
Onset of diarrhea and nausea during treatment (humans; 3.560 g/day): 2 to 3 days
Time to disappearance of diarrhea and nausea after treatment cessation (humans; 3.560 g/day): ≤ 2 days
Discontinuations - Due to Adverse Effects (no. of participants) (humans; [2]): 1
Free Will Discontinuations (no. of participants) (humans; [2]): 1
Adverse Effects (no. of participants): Nausea and Diarrhea (humans; [2]): 2
Clinical examinations and laboratory analyses of blood samples (humans; all 48 participants, 1.335-3.560 g/day): no abnormality in any parameter studied
Number of participants who failed to complete the study (humans; of 48 participants): 2
Number of participants reporting mild-to-moderate side effects (diarrhea and nausea) (humans; of 48 participants, all at 3.560 g/day): 3
Adverse effects (humans; oral doses of up to 3.56 g/day): only mild, reversible diarrhea was observed
Adverse effects during the trial ([1]; 31 participants): no adverse effects were noted
Improvement in general health status, SF-36 Total Score, compared to placebo ([1]; follow-up 15-20 day, p=0.013): statistically significant enhanced improvements
Improvement in pain measures (Visual Analogue Scale) compared to placebo ([1]; follow-up 15-20 day, p=0.033): statistically significant enhanced improvements

Reference: patent US8916612B2, “Agmatine containing dietary supplements, nutraceuticals, and foods” (priority 2008, dated 2014)
